The values that follow are results of earlier work, collected in patent publication US20170022153A1, “FUMARATE COMPOUNDS, PHARMACEUTICAL COMPOSITIONS THEREOF, AND METHODS OF USE” (priority 2015, published 2017).

Consider `COC(=O)/C=C/C(=O)OC` [DMF, dimethylfumarate], for which the aqueous solubility result is given as “poor”.
